{"source": "patent US10485584B2", "about": "“Supplement for cultivation of mammalian embryos” (Lekarska fakulta v Plzni, Univerzita Karlova (Faculty of …, priority 2017, dated 2019)", "assay_type_in_all_cases": "cell-based", "key": {"porcine embryos": {"system": "porcine embryos", "assay": "Embryonic development and blastocyst formation after 144 hr IVC", "protocol": "(§1) Porcine ovaries were obtained from 6- to 8-month-old non-cycling gilts (a crossbreed of Landrace x Large White) at the local slaughterhouse (Jatky Plzen a.s., Plzen, Czech Republic) and transported to laboratory at 39° C. Cumulus-oocyte complexes (COCs) were collected from ovarian follicles with a diameter of 2-5 mm by aspiration with a 20-gauge needle and handled in HEPES-buffered Tyrode lactate medium containing 0.01% (w/v) polyvinyl alcohol (TL-HEPES-PVA). Only fully grown oocytes with evenly dense cytoplasm, surrounded by compact cumuli, were selected for IVM and washed in maturation medium. The medium used for IVM was modified tissue culture medium (mTCM) 199 (Gibco, Life Technologies, UK) supplemented with 0.1% PVA, 3.05 mM D-glucose, 0.91 mM sodium pyruvate, […], 0.5 μg·mL^−1 LH (Sigma-Aldrich, USA), 0.5 μg·mL^−1 FSH (Sigma), 10 ng·mL^−1 epidermal growth factor (EGF; Sigma), 10% porcine follicular fluid, 75 μg·mL^−1 penicillin G and 50 μg·mL^−1 streptomycin. After 22 h of culture, the COCs were cultured in TCM199 without LH and FSH for an additional 22 h. The COCs were cultured in 500 μL of the medium covered by mineral oil in a four-well Petri dish (Nunc, Denmark), at 39° C. and 5% CO2 in air (Abeydeera et al. Theriogenology 50:747-756, 1998).\n(§2) After 44 h of IVM, cumulus cells were removed with 0.1% hyaluronidase in TL-HEPES-PVA and the metaphase II (MII) oocytes with extruded first polar body were selected for IVF. The oocytes were washed three-times with modified Tris-buffered medium (mTBM; Abeydeera et al. Theriogenology 50:747-756, 1998) with 0.2% bovine serum albumin (BSA; A7888; Sigma) and placed into 100 μL drops of mTBM, covered with mineral oil in a 35 mm Petri dish. The dishes were allowed to equilibrate at 38.5° C. and 5% CO2 for 30 min before spermatozoa were added for fertilization. Spermatozoa were prepared as follows: 1 mL liquid semen preserved in BTS-based extender was washed twice in phosphate buffered saline (PBS) with 0.1% PVA (PBS-PVA) at 1500 rpm for 5 min. The last wash was supplemented with MitoTracker CMTRos (400 nM; M7510, Invitrogen) for 10 min at 39° C., used to tag sperm mitochondria that associate with the paternal pronucleus inside the fertilized oocytes. Labeled spermatozoa were resuspended in mTBM ([…]) and 1 μL of this sperm suspension was added to the medium containing the oocytes to give a final sperm concentration of 2.5 or 5×10^5 spermatozoa mL^−1. Oocytes were co-incubated with spermatozoa for 5 to 6 h at 38.5° C. and 5% CO2 in air. Thereafter, oocytes were washed and transferred into 100 μL PZM3 medium (Yoshioka et al. Biol Reprod 66:112-119, 2002) containing 0.4% BSA (A6003; Sigma) for further culture for 22 h. Simultaneously, presumed zygotes were cultured in 500 μL of PZM3 medium for 144 hrs to reach blastocyst stage. PZM3 was supplemented with the object of invention, i.e. N-benzyl-3,5-dicarbethoxy-4-phenyl-1,4-dihydropyridine, diluted in DMSO. Vehicle control contained DMSO only in equal concentration (0.1%). Tested concentrations of the compound are 1.5 and 3 μM, based on preliminary experiments evaluating the range 0.3-30 μM (see Table 1).\n(§3) Within the imaging of 22 h zygotes, an assessment of penetration rate, creation of paternal pronucleus/pronuclei and monospermic fertilization was performed. Embryo cleavage was assessed by microscopy at 144 h of IVC. After 144 h of IVC, embryos were fixed in 2% formaldehyde for 40 min at room temperature (RT), washed three times with PBS, permeabilized with PBS-Triton X-100 for 30 min, and stained with 2.5 μg/mL DAPI (DNA staining; Molecular Probes, Eugene, Oreg., USA) for 40 min. Embryo cleavage, blastocyst formation, and cell number per blastocyst were assessed under an Eclipse Ci fluorescence microscope (Nikon Co., Tokyo, Japan).\n(§4) Data are presented as the mean±S.E.M. of at least three independent experiments. […]"}, "[1]": {"system": "porcine oocytes and zygotes", "assay": "IVF results after 22 hr IVC (penetration rate, paternal pronucleus, monospermic fertilization)", "protocol": "as §1, §2, §3, §4"}, "[2]": {"system": "H3K9me2/3 and H3K9ac in pronuclear chromatin of porcine zygotes", "assay": "Zygote quality: methylation and acetylation of histone H3 on lysine K9 in pronuclear chromatin after IVF", "conditions": "related to untreated vehicle, DMSO = 1, preliminary data", "protocol": "as §2"}, "[3]": {"conditions": "3.0 μM, 22 hr IVC, calculated from penetrated oocytes"}}, "note": "Marks after values point to notes of the source that are not given here.", "data": [{"smiles": "CCOC(=O)C1=CN(Cc2ccccc2)C=C(C(=O)OCC)C1c1ccccc1", "note": "[N-benzyl-3,5-dicarbethoxy-4-phenyl-1,4-dihydropyridine]", "values": [{"measurement": "Mean cell No. per blastocyst (mean ± SEM)", "setting": "porcine embryos; 1.5 μM", "value": "32.7 ± 2.5^a"}, {"measurement": "No. of blastocysts", "setting": "porcine embryos; 1.5 μM", "value": 10}, {"measurement": "No. of cleaved oocytes", "setting": "porcine embryos; 1.5 μM", "value": 47}, {"measurement": "blastocysts (mean % ± SEM)", "setting": "porcine embryos; 1.5 μM", "value": "14.5 ± 7.2", "unit": "%"}, {"measurement": "cleaved oocytes (mean % ± SEM)", "setting": "porcine embryos; 1.5 μM", "value": "70.2 ± 7.3", "unit": "%"}, {"measurement": "Mean cell No. per blastocyst (mean ± SEM)", "setting": "porcine embryos; 3 μM", "value": "38.4 ± 4.2^a"}, {"measurement": "No. of blastocysts", "setting": "porcine embryos; 3 μM", "value": 18}, {"measurement": "No. of cleaved oocytes", "setting": "porcine embryos; 3 μM", "value": 44}, {"measurement": "blastocysts (mean % ± SEM)", "setting": "porcine embryos; 3 μM", "value": "32.9 ± 8.1", "unit": "%"}, {"measurement": "cleaved oocytes (mean % ± SEM)", "setting": "porcine embryos; 3 μM", "value": "62.7 ± 7.1", "unit": "%"}, {"measurement": "efficiency compared with naturally occurring polyphenols (resveratrol)", "setting": "porcine embryos; comparison with resveratrol", "value": "even more efficient than naturally occurring polyphenols"}, {"measurement": "penetrated oocytes (mean % ± SEM)", "setting": "[1]; 3.0 μM, 22 hr IVC", "value": 42.8, "unit": "%"}, {"measurement": "No. of monospermic fertilization", "setting": "[1]; [3]", "value": 39}, {"measurement": "No. of oocyte with PPN", "setting": "[1]; [3]", "value": 76}, {"measurement": "monospermic fertilization (mean % ± SEM)", "setting": "[1]; [3]", "value": "42.4 ± 10.4", "unit": "%"}, {"measurement": "oocyte with PPN (mean % ± SEM)", "setting": "[1]; [3]", "value": "82.6 ± 6.7", "unit": "%"}, {"measurement": "No. of penetrated oocytes", "setting": "[1]; 3.0 μM, 22 hr IVC, of 215 oocytes", "value": 92}, {"measurement": "polyspermic fertilization", "setting": "[1]; in the presence of compound, versus DMSO vehicle", "value": "higher polyspermic fertilization"}, {"measurement": "H3K9ac", "setting": "[2]; 0.3 μM", "value": 0.61}, {"measurement": "H3K9me2/3", "setting": "[2]; 0.3 μM", "value": 2.72}, {"measurement": "H3K9ac", "setting": "[2]; 3.0 μM", "value": 0.63}, {"measurement": "H3K9me2/3", "setting": "[2]; 3.0 μM", "value": 1.64}, {"measurement": "H3K9ac", "setting": "[2]; 30 μM", "value": 1.36}, {"measurement": "H3K9me2/3", "setting": "[2]; 30 μM", "value": 0.76}]}, {"smiles": "Oc1ccc(C=Cc2cc(O)cc(O)c2)cc1", "note": "[Resveratrol, reference compound]", "values": [{"measurement": "Mean cell No. per blastocyst (mean ± SEM)", "setting": "porcine embryos; 3 μM", "value": "39.3 ± 11.3^a"}, {"measurement": "No. of blastocysts", "setting": "porcine embryos; 3 μM", "value": 4}, {"measurement": "No. of cleaved oocytes", "setting": "porcine embryos; 3 μM", "value": 47}, {"measurement": "blastocysts (mean % ± SEM)", "setting": "porcine embryos; 3 μM", "value": "6.2 ± 2.8", "unit": "%"}, {"measurement": "cleaved oocytes (mean % ± SEM)", "setting": "porcine embryos; 3 μM", "value": "67.7 ± 10.6", "unit": "%"}]}]}
